Data published in patent US20230295260A1, “GLP RECEPTOR AGONISTS” (HEPTARES THERAPEUTICS LIMITED, priority 2020, published 2023).
Non-standard residues stand in square brackets, D forms with d. Residues, ends and D or L forms follow the SMILES beside them. ξ: configuration not given here. *: point of attachment. Malonyl(2,2-Me2,histaminyl) = CC(C)(C(=O)NCCc1cnc[nH]1)C(=O)*; Ala(1H-tetrazol-5-yl) = N[C@@H](Cc1nnn[nH]1)C(=O)O; ξαMeD = CC(N)(CC(=O)O)C(=O)O; Nle = CCCC[C@H](N)C(=O)O; Aib = CC(C)(N)C(=O)O; Alloc = C=CCOC(=O)*

How the values were obtained:
mouse GLP1 receptor = target: T1, mouse GLP1 receptor (Mus musculus, UniProt O35659); test: cAMP accumulation assay (HTRF), functional agonism of mouse GLP1 receptor in HEK cells; format: cell-based; details: HEK cells transiently transfected, 45 min 37° C.; for Emax: HEK293, read-out: Mouse GLP-1 R agonist cAMP Emax; for EC50: read-out: Mouse GLP-1 R agonist cAMP pEC50 (converted)
T1 construct: expressed in transfected cells; host or cells: HEK cells, transient transfection with GeneJuice
T1 sequence (O35659 22-463): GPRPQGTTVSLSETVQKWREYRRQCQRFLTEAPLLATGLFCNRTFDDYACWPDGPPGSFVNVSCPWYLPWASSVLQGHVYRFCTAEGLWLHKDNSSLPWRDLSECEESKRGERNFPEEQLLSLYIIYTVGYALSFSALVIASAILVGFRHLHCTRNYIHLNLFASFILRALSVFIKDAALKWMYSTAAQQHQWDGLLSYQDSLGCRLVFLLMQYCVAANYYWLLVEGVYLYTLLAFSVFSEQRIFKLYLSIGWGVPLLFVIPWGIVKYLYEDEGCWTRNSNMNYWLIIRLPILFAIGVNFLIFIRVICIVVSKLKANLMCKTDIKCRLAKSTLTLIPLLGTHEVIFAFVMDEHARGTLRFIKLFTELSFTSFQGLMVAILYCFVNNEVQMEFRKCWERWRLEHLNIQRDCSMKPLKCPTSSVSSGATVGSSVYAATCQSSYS

mouse GLP2 receptor = target: T2, mouse GLP2 receptor (Mus musculus, UniProt Q5IXF8); test: cAMP accumulation assay (HTRF), functional agonism of mouse GLP2 receptor in HEK cells; format: cell-based; details: HEK cells transiently transfected, 45 min 37° C.; for Emax: HEK293, read-out: Mouse GLP-2R agonist cAMP Emax; for EC50: read-out: Mouse GLP-2R agonist cAMP pEC50 (converted)
T2 construct: expressed in transfected cells; host or cells: HEK cells, transient transfection with GeneJuice
T2 sequence (Q5IXF8 1-512): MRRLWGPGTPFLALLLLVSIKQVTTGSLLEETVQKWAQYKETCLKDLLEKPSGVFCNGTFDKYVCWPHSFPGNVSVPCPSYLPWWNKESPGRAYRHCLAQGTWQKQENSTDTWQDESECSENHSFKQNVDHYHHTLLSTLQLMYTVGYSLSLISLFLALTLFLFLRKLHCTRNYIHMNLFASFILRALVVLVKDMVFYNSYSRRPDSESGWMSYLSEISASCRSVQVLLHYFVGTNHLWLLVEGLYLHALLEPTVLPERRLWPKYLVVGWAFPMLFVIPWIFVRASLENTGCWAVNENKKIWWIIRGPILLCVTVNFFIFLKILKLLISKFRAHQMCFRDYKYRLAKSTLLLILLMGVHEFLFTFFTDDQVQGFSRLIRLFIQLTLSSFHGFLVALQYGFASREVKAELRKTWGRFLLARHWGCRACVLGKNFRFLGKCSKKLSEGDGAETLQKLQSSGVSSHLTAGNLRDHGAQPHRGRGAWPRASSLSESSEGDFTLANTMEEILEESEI

human GLP1 receptor = target: T3, human GLP1 receptor (Homo sapiens, UniProt P43220); test: cAMP accumulation assay (HTRF), functional agonism of human GLP1 receptor in HEK cells; format: cell-based; details: HEK cells, human GLP1 receptor BacMam, 45 min 37° C.; for Emax: HEK293, read-out: Human GLP-1R agonist cAMP Emax; for EC50: read-out: Human GLP-1R agonist cAMP pEC50 (converted)
T3 construct: expressed in transfected cells; host or cells: HEK cells, BacMam virus transduction
T3 sequence (P43220 24-463): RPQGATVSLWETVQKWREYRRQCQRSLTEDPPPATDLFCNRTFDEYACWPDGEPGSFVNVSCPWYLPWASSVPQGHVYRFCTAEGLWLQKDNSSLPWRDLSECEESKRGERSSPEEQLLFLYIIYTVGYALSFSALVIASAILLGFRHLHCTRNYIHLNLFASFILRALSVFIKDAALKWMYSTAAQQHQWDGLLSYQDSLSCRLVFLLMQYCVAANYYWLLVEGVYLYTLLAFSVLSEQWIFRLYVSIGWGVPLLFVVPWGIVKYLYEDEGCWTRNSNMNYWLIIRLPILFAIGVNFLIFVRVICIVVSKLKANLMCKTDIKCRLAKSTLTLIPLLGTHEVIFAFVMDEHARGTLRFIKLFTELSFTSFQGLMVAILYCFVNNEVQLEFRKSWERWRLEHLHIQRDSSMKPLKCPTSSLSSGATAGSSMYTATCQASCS

human GLP2 receptor = target: T4, human GLP2 receptor (Homo sapiens, UniProt O95838); test: cAMP accumulation assay (HTRF), functional agonism of human GLP2 receptor in HEK cells; details: for Emax: HEK293, read-out: Human GLP-2R agonist cAMP Emax;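 as to all read-outs here: HEK cells transduced via BacMam to express human GLP2 receptor, agonist-stimulated cAMP measured by HTRF after 45 min at 37 °C in HBSS with 0.5 mM IBMX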
T4 sequence (O95838 1-553): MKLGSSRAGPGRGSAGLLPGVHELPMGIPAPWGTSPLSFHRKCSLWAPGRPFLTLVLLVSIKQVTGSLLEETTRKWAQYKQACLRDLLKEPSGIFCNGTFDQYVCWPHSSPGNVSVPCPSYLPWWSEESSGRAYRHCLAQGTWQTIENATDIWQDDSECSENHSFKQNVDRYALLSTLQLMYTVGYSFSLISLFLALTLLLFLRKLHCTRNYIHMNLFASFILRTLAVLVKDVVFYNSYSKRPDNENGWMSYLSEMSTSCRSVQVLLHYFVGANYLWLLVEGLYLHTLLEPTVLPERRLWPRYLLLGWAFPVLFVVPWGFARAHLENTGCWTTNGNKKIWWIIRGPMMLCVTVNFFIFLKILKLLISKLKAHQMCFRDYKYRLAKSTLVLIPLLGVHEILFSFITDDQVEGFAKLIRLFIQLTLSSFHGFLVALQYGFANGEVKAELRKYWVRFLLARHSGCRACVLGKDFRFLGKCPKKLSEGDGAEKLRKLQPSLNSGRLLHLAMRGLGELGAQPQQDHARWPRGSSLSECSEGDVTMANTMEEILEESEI

SMILES	Emax (mouse GLP1 receptor)	Emax (mouse GLP2 receptor)	Emax (human GLP1 receptor)	Emax (human GLP2 receptor)	EC50 (mouse GLP1 receptor)	EC50 (mouse GLP2 receptor)	EC50 (human GLP1 receptor)	EC50 (human GLP2 receptor)
C=CCOC(=O)NCCCC[C@H](NC(=O)[C@H](CC(C)C)NC(=O)[C@H](CC(=O)O)NC(=O)[C@H](CC(C)C)NC(=O)[C@@H](NC(=O)[C@@H](NC(=O)[C@@H](Cc1ccccc1)NC(=O)[C@H](CCCC)NC(=O)[C@H](CCC(=O)O)NC(=O)[C@H](CC(=O)O)NC(=O)[C@H](CO)NC(=O)[C@H](Cc1ccccc1)NC(=O)[C@H](CO)NC(=O)CNC(=O)[C@H](Cc1nn[nH]n1)NC(=O)C(C)(C)C(=O)NCCc1c[nH]cn1)[C@@H](C)O)[C@@H](C)CC)C(=O)N[C@@H](C)C(=O)N[C@@H](C)C(=O)N[C@@H](CCCCN)C(=O)N[C@@H](CC(=O)O)C(=O)N[C@@H](Cc1ccccc1)C(=O)N[C@H](C(=O)N[C@@H](CC(N)=O)C(=O)N[C@@H](Cc1c[nH]c2ccccc12)C(=O)N[C@@H](CC(C)C)C(=O)N[C@H](C(=O)N[C@@H](CCC(N)=O)C(=O)N[C@H](C(=O)N[C@@H](CCCCN)C(=O)N[C@H](C(=O)N[C@H](C(=O)N[C@@H](Cc1ccccc1)C(N)=O)[C@@H](C)O)[C@@H](C)CC)[C@@H](C)O)[C@@H](C)CC)[C@@H](C)CC [Example 2] ({Malonyl(2,2-Me2,histaminyl)}-[Ala(1H-tetrazol-5-yl)]GSFSDE[Nle][dF]TILDLK(Alloc)AAKDFINWLIQTKITF-NH2)	96.1%	106%	94.7%	101%	25.1 nM	3.98 nM	7.94 nM	0.0316 nM
C=CCOC(=O)NCCCC[C@H](NC(=O)[C@H](CC(C)C)NC(=O)[C@H](CC(=O)O)NC(=O)[C@H](CC(C)C)NC(=O)[C@@H](NC(=O)[C@@H](NC(=O)[C@@H](Cc1ccccc1)NC(=O)[C@H](CCCC)NC(=O)[C@H](CCC(=O)O)NC(=O)[C@H](CC(=O)O)NC(=O)[C@H](CO)NC(=O)[C@H](Cc1ccccc1)NC(=O)[C@H](CO)NC(=O)[C@H](C)NC(=O)[C@H](Cc1nn[nH]n1)NC(=O)C(C)(C)C(=O)NCCc1c[nH]cn1)[C@@H](C)O)[C@@H](C)CC)C(=O)N[C@@H](C)C(=O)N[C@@H](C)C(=O)N[C@@H](CCCCN)C(=O)N[C@@H](CC(=O)O)C(=O)N[C@@H](Cc1ccccc1)C(=O)N[C@H](C(=O)N[C@@H](CC(N)=O)C(=O)N[C@@H](Cc1c[nH]c2ccccc12)C(=O)N[C@@H](CC(C)C)C(=O)N[C@H](C(=O)N[C@@H](CCC(N)=O)C(=O)N[C@H](C(=O)N[C@@H](CCCCN)C(=O)N[C@H](C(=O)N[C@H](C(=O)N[C@@H](CC(=O)O)C(N)=O)[C@@H](C)O)[C@@H](C)CC)[C@@H](C)O)[C@@H](C)CC)[C@@H](C)CC [Example 12] ({Malonyl(2,2-Me2,histaminyl)}-[Ala(1H-tetrazol-5-yl)]ASFSDE[Nle][dF]TILDLK(Alloc)AAKDFINWLIQTKITD-NH2)	83.3%	100%	81.1%	102%	–	–	–	–

Further lines, results first:

Emax (mouse GLP1 receptor)	Emax (mouse GLP2 receptor)	Emax (human GLP1 receptor)	Emax (human GLP2 receptor)	EC50 (mouse GLP1 receptor)	EC50 (mouse GLP2 receptor)	EC50 (human GLP1 receptor)	EC50 (human GLP2 receptor)	SMILES
92.2%	100%	94%	103%	–	–	–	–	C=CCOC(=O)NCCCC[C@H](NC(=O)[C@H](CC(C)C)NC(=O)[C@H](CC(=O)O)NC(=O)[C@H](CC(C)C)NC(=O)[C@@H](NC(=O)[C@@H](NC(=O)[C@@H](Cc1ccccc1)NC(=O)[C@H](CCCC)NC(=O)[C@H](CCC(=O)O)NC(=O)[C@H](CC(=O)O)NC(=O)[C@H](CO)NC(=O)[C@H](Cc1ccccc1)NC(=O)[C@H](CO)NC(=O)CNC(=O)[C@H](Cc1nn[nH]n1)NC(=O)C(C)(C)C(=O)NCCc1c[nH]cn1)[C@@H](C)O)[C@@H](C)CC)C(=O)N[C@@H](C)C(=O)N[C@@H](C)C(=O)N[C@@H](CCCCN)C(=O)N[C@@H](CC(=O)O)C(=O)N[C@@H](Cc1ccccc1)C(=O)N[C@H](C(=O)N[C@@H](CC(N)=O)C(=O)N[C@@H](Cc1c[nH]c2ccccc12)C(=O)N[C@@H](CC(C)C)C(=O)N[C@H](C(=O)N[C@@H](CCC(N)=O)C(=O)N[C@H](C(=O)N[C@@H](CCCCN)C(=O)N[C@H](C(=O)N[C@H](C(=O)NC(C)(CC(=O)O)C(N)=O)[C@@H](C)O)[C@@H](C)CC)[C@@H](C)O)[C@@H](C)CC)[C@@H](C)CC (some centres unmarked) [Example 20] ({Malonyl(2,2-Me2,histaminyl)}-[Ala(1H-tetrazol-5-yl)]GSFSDE[Nle][dF]TILDLK(Alloc)AAKDFINWLIQTKIT[ξαMeD]-NH2; C-terminus assumed)
94.9%	100%	93.7%	101%	0.631 nM	0.794 nM	0.794 nM	0.00501 nM	C=CCOC(=O)NCCCC[C@H](NC(=O)[C@H](CC(C)C)NC(=O)[C@H](CC(=O)O)NC(=O)[C@H](CC(C)C)NC(=O)C(C)(C)NC(=O)[C@@H](NC(=O)[C@@H](Cc1ccccc1)NC(=O)[C@H](CCCC)NC(=O)[C@H](CCC(=O)O)NC(=O)[C@H](CC(=O)O)NC(=O)[C@H](CO)NC(=O)[C@H](Cc1ccccc1)NC(=O)[C@H](CO)NC(=O)CNC(=O)[C@H](Cc1nn[nH]n1)NC(=O)C(C)(C)C(=O)NCCc1c[nH]cn1)[C@@H](C)O)C(=O)N[C@@H](C)C(=O)N[C@@H](C)C(=O)N[C@@H](CCCCN)C(=O)N[C@@H](CC(=O)O)C(=O)N[C@@H](Cc1ccccc1)C(=O)N[C@H](C(=O)N[C@@H](CC(N)=O)C(=O)N[C@@H](Cc1c[nH]c2ccccc12)C(=O)N[C@@H](CC(C)C)C(=O)N[C@H](C(=O)N[C@@H](CCC(N)=O)C(=O)N[C@H](C(=O)N[C@@H](CCCCN)C(=O)N[C@H](C(=O)N[C@H](C(=O)N[C@@H](CC(=O)O)C(N)=O)[C@@H](C)O)[C@@H](C)CC)[C@@H](C)O)[C@@H](C)CC)[C@@H](C)CC [Example 17] ({Malonyl(2,2-Me2,histaminyl)}-[Ala(1H-tetrazol-5-yl)]GSFSDE[Nle][dF]T[Aib]LDLK(Alloc)AAKDFINWLIQTKITD-NH2)
94.4%	99.9%	95.1%	101%	1.58 nM	1.58 nM	5.01 nM	0.00794 nM	C=CCOC(=O)NCCCC[C@H](NC(=O)[C@H](C)NC(=O)[C@H](C)NC(=O)[C@H](CCCCNC(=O)OCC=C)NC(=O)[C@H](CC(C)C)NC(=O)[C@H](CC(=O)O)NC(=O)[C@H](CC(C)C)NC(=O)C(C)(C)NC(=O)[C@@H](NC(=O)[C@@H](Cc1ccccc1)NC(=O)[C@H](CCCC)NC(=O)[C@H](CCC(=O)O)NC(=O)[C@H](CC(=O)O)NC(=O)[C@H](CO)NC(=O)[C@H](Cc1ccccc1)NC(=O)[C@H](CO)NC(=O)CNC(=O)[C@H](Cc1nn[nH]n1)NC(=O)C(C)(C)C(=O)NCCc1c[nH]cn1)[C@@H](C)O)C(=O)N[C@@H](CC(=O)O)C(=O)N[C@@H](Cc1ccccc1)C(=O)N[C@H](C(=O)N[C@@H](CC(N)=O)C(=O)N[C@@H](Cc1c[nH]c2ccccc12)C(=O)N[C@@H](CC(C)C)C(=O)N[C@H](C(=O)N[C@@H](CCC(N)=O)C(=O)N[C@H](C(=O)N[C@@H](CCCCN)C(=O)N[C@H](C(=O)N[C@H](C(=O)N[C@@H](CC(=O)O)C(N)=O)[C@@H](C)O)[C@@H](C)CC)[C@@H](C)O)[C@@H](C)CC)[C@@H](C)CC [Example 15] ({Malonyl(2,2-Me2,histaminyl)}-[Ala(1H-tetrazol-5-yl)]GSFSDE[Nle][dF]T[Aib]LDLK(Alloc)AAK(Alloc)DFINWLIQTKITD-NH2)
